Assay results as given in USRE49351E1, “Cytoprotective agent” (Biogen MA Inc., priority 2009, dated 2023).

Key:
[1] = system: Mongolian gerbil cerebral infarction model; assay: Mongolian gerbil cerebral infarction model (acetic acid-induced thrombus): infarction area percentage and neurological symptom; type: in vivo; conditions: for Infarction area: evaluated 24 h; for Infarction area / Neurological scores: mean ± SE, n=6; for Neurological scores: score 0-4 at 24 h; for improvement rate of the infarction area percentage: 10 mg/kg, administration initiated 1 hour after the initiation of ischemia
From the text: Anesthesia was induced to a male Mongolian gerbil (body weight 55 to 65 g) by inhalation of 5% isoflurane (trade name Escain, Mylan Inc.), and maintained with 1 to 1.5% isoflurane. The Mongolian gerbil was fixed in a dorsal position, and the neck was dehaired and then disinfected with 70% ethanol. After median incision of the neck, the right common carotid artery was detached, clamped to block the blood flow temporarily, and coated with 100% acetic acid by 30 reciprocating motions so as to produce a thrombus. The blood vessel was reopened after 10 min of the blockage of the blood flow to transfer the thrombus by the blood stream into the brain to make it ischemic and generate cerebral infarction. The operating field was closed with an instant adhesive (trade name Aron Alpha (Krazy Glue), Toagosei Co., Ltd.) and disinfected with 70% ethanol.
Twenty four hours after the initiation of the operation neurological symptoms were observed as an indicator for cerebral infarction. Many types of neurological symptoms specific to cerebral infarction, such as extension of a hindlimb or circling to one direction, have been reported. Applying a modified evaluation method of the method proposed by Longa, et al. (Stroke 1989; 20:84-91) postoperative neurological symptoms were evaluated as per: no deficit, 0; extension of limb, 1; circling to one direction, 2; incline posture, 3; diminished motion, 4.
With respect to statistical analysis, for multiple comparisons was conducted firstly one-way analysis of variance (ANOVA) and then a Bonferroni test was conducted, if significant difference is detected. Significant difference was positively recognized with significance level 5% (P<0.05). All the results are expressed in mean±standard error.
After the evaluation of neurological symptoms according to the above method, the animal was decapitated under anesthesia with isoflurane. The cranial bone was exfoliated of skin and opened, and, after scission of optic nerve, the brain was extirpated and dipped in a physiological saline solution to remove attached body hairs, etc. The extirpated brain was placed in a brain matrix (RBM-1000C, ASI Instruments) to carry out coronal slicing from the frontal pole at thickness of 2 mm. The slices were dipped in 2% 2,3,5-triphenyl-2H-tetrazolium chloride (TTC), and incubated for staining at 37° C. for 30 min in a CO2 incubator. The colorless TTC is reduced by hydrogen liberated by the action of dehydrogenase contained in a normal cell converting to dark red colored water-insoluble 1,3,5-triphenylformazan (TPF), so that the normal cell is stained. Unstained area (white area) was defined as an infarction area. Meanwhile, the corpus callosum, which is commissural fibers connecting the right and left cerebral hemispheres, is not stained and is white, and therefore image processing for the analyses as described below was conducted excluding the corpus callosum.
After staining images of the brain slices were taken by a digital camera under a stereoscopic microscope. For analysis of the infarction area percentage, an image analysis software Image J (Version 1.4) was used. Full, excluding the corpus callosum, images of the taken 2nd, 3rd, and 4th brain slice images were converted to grayscale. From the grayscale images a histogram for the whole brain as the object scope was obtained showing in the ordinate the frequency of occurrence (frequency) at certain brightness, and showing in the abscissa the brightness (0 to 255). The sum from 0 to 255 was defined as the area size of the whole brain, and the sum from 160 to 219 was defined as the area size of the infarction area. Then the infarction area percentage was determined according to the following formula using the total area size of the infarction areas and the total area size of the whole brain, of the 3 brain slice images. Statistical analysis was conducted as above. […]

[2] = system: cerebral blood flow; assay: Cerebral blood flow by laser-Doppler in mouse cerebral infarction model; type: in vivo; conditions: mean ± SE, n=3
Method: The improvement effectiveness of SMTP-7 and alteplase on the cerebral blood flow was compared using the mouse cerebral infarction model.
SMTP-7 and alteplase were prepared as in Example 2. SMTP-7 and alteplase were administered in an amount of 10 mg/kg into the femoral vein 1 hour after the initiation of ischemia in a mouse cerebral infarction model, wherein 10% was administered by a bolus administration, and the rest by continuous administration over 30 min. Three mice were used for each condition.
The cerebral blood flow was measured at 6 time points, namely before the initiation of ischemia, immediately after the initiation of ischemia, and after the completion of the drug administration 0 hour (immediately after the completion), 1 hour, 3 hours, and 24 hours.
The cerebral blood flow measurement was conducted by cutting the head skin of a mouse to expose the cranial bone, and measuring the blood flow of the whole brain surfaces by a laser-Doppler apparatus (moorFLPI, Moor Instruments Ltd, UK). The analysis was conducted using moorFLPI (Version 2.1) by rating percentage (%) relative to the value before the initiation of ischemia of each group.

[3] = H-ORAC (hydrophilic oxygen radical absorbance capacity) assay; type: biochemical; conditions: sodium salt aqueous solution, phosphate buffer pH 7.4
Method: To study the free radical scavenging activity of a triprenyl phenol compound, the following H-ORAC (hydrophilic oxygen radical absorbance capacity) assay, and modified H-ORAC (mH-ORAC) assay were conducted.
SMTP compounds evaluated by H-ORAC were used respectively in a form of a sodium salt aqueous solution, and the compounds evaluated by mH-ORAC were used respectively in a form of an acetone solution.
In H-ORAC a test compound was diluted appropriately with a buffer solution (75 mM phosphate buffer solution, pH 7.4) and used for measurement. In mH-ORAC a test compound was diluted appropriately by a 50% (v/v) acetone solution, prepared by diluting an acetone solution with water, to prepare a solution of 40-fold the final concentration. […] As for the reference material Trolox, 500 μM/buffer solution was diluted appropriately with a buffer solution.
To a 96-well microplate (transparent, flat bottom, black wall) 50 μL of a test compound solution or a Trolox solution was placed, and additionally 100 μL of a fluorescein 140 nM/buffer solution as a fluorescent substance was added (final concentration 70 nM), followed by incubation at 37° C. for […].
As a free radical generator, 50 μL of a 48 mM/buffer solution of 2,2′-azobis(amidinopropane)dihydrochloride was added (final concentration 12 mM), and fluorescence intensity at fluorescence wavelength of 535 nm with excitation wavelength of 485 nm was measured at 2 min intervals for 90 min. The calibration curve was prepared between the Trolox final concentrations of 5 to 15 μM. The measurement was conducted by changing the concentration with n=3, and plotted on a diagram with time on the abscissa and the fluorescence intensity on the ordinate. Therewith evaluation was made using the value obtained by reducing the area under the curve for the blank from the area under the curve for the sample. The result was expressed as an equivalent to Trolox.

[4] = 0.01 mg/kg i.v., administration initiated 1 hr after ischemia
[5] = 0.1 mg/kg i.v., administration initiated 1 hr after ischemia
[6] = 10 mg/kg i.v., administration initiated 1 hr after ischemia
[7] = 10 mg/kg i.v., administration initiated 3 hr after ischemia
[8] = 10 mg/kg i.v., administration initiated 6 hr after ischemia
[9] = 10 mg/kg 1 hour after ischemia, 0 hr after completion of administration
[10] = 10 mg/kg 1 hour after ischemia, 1 hr after completion of administration
[11] = 10 mg/kg 1 hour after ischemia, 3 hr after completion of administration
[12] = 10 mg/kg 1 hour after ischemia, 24 hr after completion of administration
[13] = immediately after initiation of ischemia (before drug administration), group later given 10 mg/kg
[14] = 1 mg/kg i.v., administration initiated 1 hr after ischemia

Row | Compound | Infarction area [1, 4] [%] | Neurological scores [1, 4] | Infarction area [1, 5] [%] | Neurological scores [1, 5] | Infarction area [1, 6] [%] | Neurological scores [1, 6] | Infarction area [1, 7] [%] | Neurological scores [1, 7] | Infarction area [1, 8] [%] | Neurological scores [1, 8] | improvement rate of the infarction area percentage [1] [%] | cerebral blood flow relative to the value before the initiation of ischemia [2, 9] [%] | cerebral blood flow relative to the value before the initiation of ischemia [2, 10] [%] | cerebral blood flow relative to the value before the initiation of ischemia [2, 11] [%] | cerebral blood flow relative to the value before the initiation of ischemia [2, 12] [%] | cerebral blood flow relative to the value before the initiation of ischemia [2, 13] [%] | Infarction area [1, 14] [%] | Neurological scores [1, 14] | free radical scavenging activity, Trolox equivalent [3] [molTE/mol]
1 | alteplase [reference compound] | 11.2 ± 2.74 | 2.67 ± 0.56 | 9.67 ± 2.35 | 2.00 ± 0.77 | 5.43 ± 1.33 | 0.17 ± 0.17 | 11.0 ± 3.61 | 1.33 ± 0.67 | 13.8 ± 2.40 | 3.17 ± 0.48 | 78.9 | 56.45 ± 14.70 | 73.49 ± 20.33 | 66.83 ± 11.10 | 71.63 ± 6.06 | 27.30 ± 2.35 | – | – | –
2 | CC(C)=CCC/C(C)=C/CC[C@@]1(C)Oc2c(c(O)cc3c2CN(CCC[C@@H](C(=O)O)N2Cc4c(cc(O)c5c4O[C@](C)(CC/C=C(\C)CCC=C(C)C)[C@@H](O)C5)C2=O)C3=O)C[C@@H]1O [SMTP-7] | – | – | – | – | 7.01 ± 0.56 | 1.50 ± 0.67 | 5.90 ± 0.36 | 1.67 ± 0.61 | 7.93 ± 1.64 | 2.00 ± 0.45 | 65.7 | 43.74 ± 12.67 | 44.48 ± 12.59 | 48.90 ± 15.89 | 76.01 ± 9.71 | 34.17 ± 5.22 | 11.4 ± 2.69 | 2.67 ± 0.33 | 2.08 ± 0.13
3 | CC(C)=CCC/C(C)=C/CCC1(C)Oc2c(c(O)cc3c2CN(C(Cc2c[nH]c4ccccc24)C(=O)O)C3=O)CC1O (centres unmarked) [SMTP-6] | – | – | – | – | – | – | – | – | – | – | – | – | – | – | – | – | – | – | 3.73 ± 0.42
